Source: US6656948B2, “Cytotoxic compounds: derivatives of the pyrido[2,3,4-kl]acridine ring system” (Universidad Complutense de Madrid, priority 1998, dated 2003)
pIC50: −log10 of the molar value.

Columns and labels:
Assay type in all cases: cell-based
[1] = tested on: P-388 (ATCC CCL-46, suspension culture of a lymphoid neoplasm from DBA/2 mouse); experiment: Cytotoxicity against P-388 cells, approximate IC50 from growth versus control wells; conditions: P388, 72 h, three days of incubation; for IC50: duplicate; for pIC50: value in brackets
Protocol: (§1) Its antitumor activity has been detected in vitro by culturing the tumor cells following the methodology described by Bergeron et al. ^16, and by Schroeder et al ^16. Activity against different tumors as mouse lymphoma, human NSC lung carcinoma, human melanoma and human colon carcinoma has been observed.
(§2) Biological activity: Cells were maintained in logarithmic phase of growth in Eagle's Minimum Essential Medium, with Earle's Balanced Salts, with 2.0 mM L-glutamine, with non-essential amino acids, without sodium bicarbonate (EMEM/neaa); suplemented with 10% Fetal Calf Serum (FCS), 10^−2 M sodium bicarbonate and 0,1 g/l penicillin-G+ streptomycin sulfate.
(§3) The tumor cell lines employed have been P-388 (ATCC CCL-46, suspension culture of a lymphoid neoplasm from DBA/2 mouse), A-549 (ATCC CCL-185, monolayer culture of a human lung carcinoma), HT-29 (ATCC HTB-38, monolayer culture of a human colon carcinoma) and MEL-28 (ATCC […], monolayer culture of a human melanoma).
(§4) P-388 cells were seeded into 16 mm wells at 1×10^4 cells per well in 1 ml aliquots of MEM 5FCS containing the indicated concentration of drug. A separate set of cultures without drug was seeded as control growth to ensure that cells remained in exponential phase of growth. All determinations were carried out in duplicate. After three days of incubation at 37° C., 10% CO2 in a 98% humide atmosphere, an aproximate IC50 was determined by comparing the growth in wells with drug to the growth in wells control.
(§5) In Table I are presented the cytotoxicity expressed as IC50 in μg/ml and μM

[2] = tested on: A-549 (ATCC CCL-185, monolayer culture of a human lung carcinoma); experiment: Cytotoxicity against A-549 cells, crystal violet staining, approximate IC50; conditions: A549, 72 h, three days of incubation; for IC50: duplicate; for pIC50: value in brackets
Protocol: as §1, §2, §3
as §4, with “A-549, HT-29 and MEL-28” for “P-388 cells”, “2×10^4” for “1×10^4”, “10FCS” for “5FCS”, “the wells were stained with 0.1% Crystal Violet. An” for “an”
as §5

[3] = tested on: HT-29 (ATCC HTB-38, monolayer culture of a human colon carcinoma); experiment: Cytotoxicity against HT-29 cells, crystal violet staining, approximate IC50; conditions: HT-29, 72 h, three days of incubation; for IC50: duplicate; for pIC50: value in brackets
Protocol: as §1, §2, §3
as §4, with “A-549, HT-29 and MEL-28” for “P-388 cells”, “2×10^4” for “1×10^4”, “10FCS” for “5FCS”, “the wells were stained with 0.1% Crystal Violet. An” for “an”
as §5

[4] = tested on: MEL-28 (ATCC HTB-38, monolayer culture of a human melanoma); experiment: Cytotoxicity against MEL-28 cells, crystal violet staining, approximate IC50; conditions: SK-MEL-28, 72 h, three days of incubation; for IC50: duplicate; for pIC50: value in brackets
Protocol: as §1, §2, §3
as §4, with “A-549, HT-29 and MEL-28” for “P-388 cells”, “2×10^4” for “1×10^4”, “10FCS” for “5FCS”, “the wells were stained with 0.1% Crystal Violet. An” for “an”
as §5

[5] = tested on: several mammalian cancer cell lines; experiment: In vitro antitumor activity by culturing tumor cells (overall statement); conditions: mouse lymphoma, human NSC lung carcinoma, human melanoma, human colon carcinoma
Description: as §1

| Compound | IC50 [1] [µg/mL] | pIC50 [1] | IC50 [2] [µg/mL] | pIC50 [2] | IC50 [3] [µg/mL] | pIC50 [3] | IC50 [4] [µg/mL] | pIC50 [4] | antitumor activity against several mammalian cancer cell lines [5] |
| --- | --- | --- | --- | --- | --- | --- | --- | --- | --- |
| Cc1cc(=O)[nH]c2c1-c1nc3ccccc3c3ccnc(c13)C2=O [IB-96213, 12-Methyl-9H-benzo[b]pyrido[4,3,2-d,e](1,7)phenantroline-8,10-dione] | 0.1 | 6.49 | 0.001 | 8.52 | 1 | 5.50 | 0.001 | 8.52 | good antitumor activity |
| O=C1c2c(O)ccnc2-c2nc3ccccc3c3ccnc1c23 [IB-98205, 9-hydroxybenzo[b]pyrido[4,3,2-d,e](1,10)phenantrolin-8-one] | 1.25 | 5.38 | 0.012 | 7.40 | 0.12 | 6.40 | 0.05 | 6.77 | good antitumor activity |
